Measured values reported in ChEMBL document CHEMBL1201862, “PubChem BioAssay data set” (2004).
Active and inactive are the calls of the source.

Columns and labels:
[1] = biological target: T1, Runt-related transcription factor 1/Core-binding factor subunit beta (Homo sapiens, UniProt Q01196+Q13951); test: inhibitors of RUNX1 Runt–CBFb-SMMHC binding, primary screen, biochemical, FRET, Cerulean-Runt, Venus-CBFb-SMMHC, uHTS (AID 1434); type: protein assay;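 note: partner is the CBFb-SMMHC leukemia fusion protein rather than wild-type CBFb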
T1 sequence (Q01196 whole entry, the tested form may be a part): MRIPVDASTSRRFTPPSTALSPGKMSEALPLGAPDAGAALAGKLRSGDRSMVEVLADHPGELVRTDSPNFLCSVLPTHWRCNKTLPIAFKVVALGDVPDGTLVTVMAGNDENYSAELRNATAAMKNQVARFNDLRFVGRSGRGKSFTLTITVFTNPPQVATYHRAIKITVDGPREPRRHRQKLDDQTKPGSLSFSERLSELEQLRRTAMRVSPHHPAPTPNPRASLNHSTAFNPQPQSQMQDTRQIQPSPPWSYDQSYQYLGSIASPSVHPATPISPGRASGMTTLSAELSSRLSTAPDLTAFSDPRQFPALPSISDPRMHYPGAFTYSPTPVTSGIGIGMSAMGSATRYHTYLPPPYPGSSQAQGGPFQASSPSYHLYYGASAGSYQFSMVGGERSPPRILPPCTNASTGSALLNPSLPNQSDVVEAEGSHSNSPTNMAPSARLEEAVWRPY
T1 sequence (Q13951 whole entry, the tested form may be a part): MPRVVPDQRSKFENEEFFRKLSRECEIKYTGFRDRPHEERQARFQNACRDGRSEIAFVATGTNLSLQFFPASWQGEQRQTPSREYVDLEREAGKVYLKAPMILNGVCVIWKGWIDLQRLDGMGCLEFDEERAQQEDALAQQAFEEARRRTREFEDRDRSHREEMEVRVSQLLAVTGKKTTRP

[2] = biological target: T1, Runt-related transcription factor 1/Core-binding factor subunit beta; test: inhibitors of RUNX1 Runt–CBFb-SMMHC binding, biochemical, TR-FRET (AID 1438); type: protein assay
[3] = biological target: T2, Polyadenylate-binding protein 1 (Homo sapiens, UniProt P11940); test: PABP1 MLLE–PAM2 interaction inhibitors, dose response, miRNA deadenylation inhibitor project, biochemical, fluorescence polarization, Cy5-PAM2 peptide, secondary (AID 602260); type: functional; conditions: read-out: IC50_Mean
T2 sequence (P11940 whole entry): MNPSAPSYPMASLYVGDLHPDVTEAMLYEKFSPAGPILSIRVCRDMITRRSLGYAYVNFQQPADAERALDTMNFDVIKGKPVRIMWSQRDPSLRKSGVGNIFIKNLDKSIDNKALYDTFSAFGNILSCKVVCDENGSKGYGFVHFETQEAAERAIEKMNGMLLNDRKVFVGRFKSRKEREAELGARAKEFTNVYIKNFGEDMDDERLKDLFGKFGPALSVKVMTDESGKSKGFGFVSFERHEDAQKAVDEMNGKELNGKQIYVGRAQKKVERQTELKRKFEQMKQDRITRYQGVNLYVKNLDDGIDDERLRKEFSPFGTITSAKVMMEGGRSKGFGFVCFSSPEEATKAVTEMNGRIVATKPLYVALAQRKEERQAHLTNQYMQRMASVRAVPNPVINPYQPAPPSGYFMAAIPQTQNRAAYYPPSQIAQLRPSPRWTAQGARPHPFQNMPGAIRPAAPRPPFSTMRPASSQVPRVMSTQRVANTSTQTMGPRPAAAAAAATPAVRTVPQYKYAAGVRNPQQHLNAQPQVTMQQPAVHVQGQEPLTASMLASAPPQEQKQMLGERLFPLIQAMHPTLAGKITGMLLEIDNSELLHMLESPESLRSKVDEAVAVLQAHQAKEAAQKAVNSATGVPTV

[4] = biological target: T2, Polyadenylate-binding protein 1; test: PABP1 MLLE–PAM2 binding inhibitor potency, dose response, biochemical, fluorescence polarization, FITC-PAM2 peptide (AID 602259); type: functional; conditions: read-out: IC50_Mean
Ion channel NompC = Ion channel NompC (Danio rerio, UniProt Q7T1G6); test: Dose response cell-based high-throughput screening assay for agonists of the transient receptor potential channel N1 (TRPN1). [Related pubchem assays (depositor defined):AID1424, AID1448]; type: functional
Chain of Ion channel NompC (Q7T1G6 whole entry): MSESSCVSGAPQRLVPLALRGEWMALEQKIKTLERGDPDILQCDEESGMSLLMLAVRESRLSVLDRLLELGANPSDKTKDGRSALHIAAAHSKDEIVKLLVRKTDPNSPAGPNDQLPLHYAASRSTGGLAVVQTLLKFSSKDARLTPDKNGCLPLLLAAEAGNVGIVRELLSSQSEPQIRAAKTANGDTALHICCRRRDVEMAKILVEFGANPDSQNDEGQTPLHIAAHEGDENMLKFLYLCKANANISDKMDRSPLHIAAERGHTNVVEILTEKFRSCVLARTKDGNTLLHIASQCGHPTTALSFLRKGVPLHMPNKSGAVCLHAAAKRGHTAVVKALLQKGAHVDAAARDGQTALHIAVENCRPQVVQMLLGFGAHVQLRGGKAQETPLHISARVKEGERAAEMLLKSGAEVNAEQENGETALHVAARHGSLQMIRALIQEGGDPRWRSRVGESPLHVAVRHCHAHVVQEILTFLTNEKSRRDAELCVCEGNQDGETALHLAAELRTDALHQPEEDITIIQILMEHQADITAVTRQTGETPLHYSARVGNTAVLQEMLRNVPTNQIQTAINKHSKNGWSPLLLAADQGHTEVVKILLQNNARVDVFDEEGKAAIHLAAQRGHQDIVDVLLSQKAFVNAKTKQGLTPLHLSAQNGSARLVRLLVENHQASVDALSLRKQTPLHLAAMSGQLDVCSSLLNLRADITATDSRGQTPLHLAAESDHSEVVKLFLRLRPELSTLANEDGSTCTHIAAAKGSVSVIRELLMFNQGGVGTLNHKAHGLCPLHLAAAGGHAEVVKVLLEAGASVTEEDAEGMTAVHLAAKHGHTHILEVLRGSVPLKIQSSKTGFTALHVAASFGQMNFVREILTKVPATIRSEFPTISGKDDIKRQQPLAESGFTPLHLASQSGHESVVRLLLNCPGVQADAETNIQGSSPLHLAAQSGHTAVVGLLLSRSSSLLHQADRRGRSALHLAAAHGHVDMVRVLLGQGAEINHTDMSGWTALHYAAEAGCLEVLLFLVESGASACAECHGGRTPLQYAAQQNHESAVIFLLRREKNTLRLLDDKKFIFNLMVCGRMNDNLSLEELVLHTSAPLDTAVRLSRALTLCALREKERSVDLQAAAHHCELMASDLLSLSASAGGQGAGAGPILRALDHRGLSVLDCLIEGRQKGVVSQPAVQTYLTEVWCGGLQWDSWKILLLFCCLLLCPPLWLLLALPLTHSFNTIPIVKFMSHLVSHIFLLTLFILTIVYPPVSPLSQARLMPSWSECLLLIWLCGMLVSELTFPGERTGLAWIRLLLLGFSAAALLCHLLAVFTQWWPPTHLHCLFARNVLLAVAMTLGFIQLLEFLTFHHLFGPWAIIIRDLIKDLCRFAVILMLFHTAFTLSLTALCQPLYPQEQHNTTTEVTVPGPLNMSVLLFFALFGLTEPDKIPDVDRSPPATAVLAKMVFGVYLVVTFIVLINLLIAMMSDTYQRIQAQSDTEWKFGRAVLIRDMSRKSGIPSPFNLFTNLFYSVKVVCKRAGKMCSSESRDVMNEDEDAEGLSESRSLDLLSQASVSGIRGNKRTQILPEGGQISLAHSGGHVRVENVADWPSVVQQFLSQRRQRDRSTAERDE

Mucolipin-3 = Mucolipin-3 (Homo sapiens, UniProt Q8TDD5); test: Fluorescence counterscreen assay for […] agonists: dose response cell-based high-throughput screening assay to identify agonists of the transient receptor potential channel ML3 (TRPML3). [Related pubchem assays: 1424, 1448 ]; type: functional
Cannabinoid receptor 1 [5] = biological target: T3, Cannabinoid receptor 1 (Homo sapiens, UniProt P21554); test: SAR analysis of antagonists of the Cannabinoid Receptor 1 using an Image-Based Assay - Set 3. [Related pubchem assays (depositor defined):AID1961, AID1965]; type: functional
T3 sequence (P21554 whole entry): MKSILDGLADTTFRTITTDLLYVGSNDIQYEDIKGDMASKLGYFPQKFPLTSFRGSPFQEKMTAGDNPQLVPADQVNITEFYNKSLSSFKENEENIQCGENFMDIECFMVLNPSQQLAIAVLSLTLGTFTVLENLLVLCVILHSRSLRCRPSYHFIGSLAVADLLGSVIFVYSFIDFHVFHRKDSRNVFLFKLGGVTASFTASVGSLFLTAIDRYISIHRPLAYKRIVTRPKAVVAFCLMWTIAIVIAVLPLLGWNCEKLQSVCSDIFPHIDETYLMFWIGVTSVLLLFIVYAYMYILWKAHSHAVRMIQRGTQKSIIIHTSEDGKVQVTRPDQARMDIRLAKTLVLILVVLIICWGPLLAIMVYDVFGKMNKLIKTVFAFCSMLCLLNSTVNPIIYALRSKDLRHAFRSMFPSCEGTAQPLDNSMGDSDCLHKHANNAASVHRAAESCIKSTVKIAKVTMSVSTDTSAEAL

[6] = biological target: G-protein coupled receptor 55 (Homo sapiens, UniProt Q9Y2T6); test: SAR analysis of selective Agonists of GPR55 using an Image-Based Assay - Set 2. [Related pubchem assays (depositor defined):AID1961, AID1965]; type: functional
Cannabinoid receptor 2 [7] = biological target: T4, Cannabinoid receptor 2 (Homo sapiens, UniProt P34972); test: SAR analysis of antagonists of the Cannabinoid Receptor 2 using an Image-Based Assay - Set 2. [Related pubchem assays (depositor defined):AID1961, AID1965]; type: functional
T4 sequence (P34972 whole entry): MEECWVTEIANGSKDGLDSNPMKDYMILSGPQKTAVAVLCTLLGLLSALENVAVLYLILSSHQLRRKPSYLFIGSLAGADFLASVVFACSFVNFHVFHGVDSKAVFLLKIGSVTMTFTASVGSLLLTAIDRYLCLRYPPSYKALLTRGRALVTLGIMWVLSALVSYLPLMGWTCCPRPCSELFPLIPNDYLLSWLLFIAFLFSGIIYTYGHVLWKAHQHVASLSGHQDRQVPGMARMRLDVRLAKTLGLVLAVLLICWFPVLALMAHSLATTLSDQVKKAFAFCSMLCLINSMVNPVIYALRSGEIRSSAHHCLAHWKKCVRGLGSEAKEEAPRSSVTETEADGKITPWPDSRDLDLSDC

Cannabinoid receptor 2 [8] = biological target: T4, Cannabinoid receptor 2; test: SAR analysis of agonists of the Cannabinoid Receptor 2 using an Image-Based Assay - Set 2. [Related pubchem assays (depositor defined):AID1961, AID1965]; type: functional
Cannabinoid receptor 1 [9] = biological target: T3, Cannabinoid receptor 1; test: SAR analysis of agonists of the Cannabinoid Receptor 1 using an Image-Based Assay - Set 3. [Related pubchem assays (depositor defined):AID1961, AID1965]; type: functional
[10] = biological target: T5, G-protein coupled receptor 35 (Homo sapiens, UniProt Q9HC97); test: SAR analysis of Antagonists of the GPR35 Receptor using an Image-Based Assay - Set 4. [Related pubchem assays (depositor defined):[…]]; type: functional
T5 sequence (Q9HC97 whole entry): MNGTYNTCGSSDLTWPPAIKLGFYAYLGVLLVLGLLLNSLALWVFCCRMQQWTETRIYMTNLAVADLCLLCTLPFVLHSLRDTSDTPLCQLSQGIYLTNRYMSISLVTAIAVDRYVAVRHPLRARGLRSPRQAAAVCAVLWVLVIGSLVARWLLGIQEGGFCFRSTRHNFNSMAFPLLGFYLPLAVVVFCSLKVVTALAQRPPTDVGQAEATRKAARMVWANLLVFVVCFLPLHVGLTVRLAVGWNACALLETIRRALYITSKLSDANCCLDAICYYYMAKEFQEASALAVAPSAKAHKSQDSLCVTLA

[11] = biological target: T5, G-protein coupled receptor 35; test: SAR analysis of Agonists of the GPR35 Receptor using an Image-Based Assay - Set 3. [Related pubchem assays (depositor defined):AID1961, AID1965]; type: functional
[12] = biological target: DNA damage-inducible transcript 3 protein (Mus musculus, UniProt P35639); type: functional, Cricetulus griseus
Chain of DNA damage-inducible transcript 3 protein (P35639 whole entry): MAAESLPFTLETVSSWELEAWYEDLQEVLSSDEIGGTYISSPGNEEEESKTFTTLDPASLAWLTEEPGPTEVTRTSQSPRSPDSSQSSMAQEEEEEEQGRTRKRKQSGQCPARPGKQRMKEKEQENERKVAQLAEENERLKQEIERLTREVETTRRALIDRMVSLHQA

[13] = ADAM10 protease inhibitors, dose response, selectivity assay for ADAM17 exosite inhibitor project, biochemical, FRET peptide substrate, recombinant human ADAM10 (AID 743259);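 note: ADAM10 enzyme cleaving a FRET peptide substrate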
[14] = biological target: Disintegrin and metalloproteinase domain-containing protein 17 (Homo sapiens, UniProt P78536); test: exosite inhibitors of ADAM17, dose response, biochemical (AID 743260)
Chain of Disintegrin and metalloproteinase domain-containing protein 17 (P78536 whole entry, the tested form may be a part): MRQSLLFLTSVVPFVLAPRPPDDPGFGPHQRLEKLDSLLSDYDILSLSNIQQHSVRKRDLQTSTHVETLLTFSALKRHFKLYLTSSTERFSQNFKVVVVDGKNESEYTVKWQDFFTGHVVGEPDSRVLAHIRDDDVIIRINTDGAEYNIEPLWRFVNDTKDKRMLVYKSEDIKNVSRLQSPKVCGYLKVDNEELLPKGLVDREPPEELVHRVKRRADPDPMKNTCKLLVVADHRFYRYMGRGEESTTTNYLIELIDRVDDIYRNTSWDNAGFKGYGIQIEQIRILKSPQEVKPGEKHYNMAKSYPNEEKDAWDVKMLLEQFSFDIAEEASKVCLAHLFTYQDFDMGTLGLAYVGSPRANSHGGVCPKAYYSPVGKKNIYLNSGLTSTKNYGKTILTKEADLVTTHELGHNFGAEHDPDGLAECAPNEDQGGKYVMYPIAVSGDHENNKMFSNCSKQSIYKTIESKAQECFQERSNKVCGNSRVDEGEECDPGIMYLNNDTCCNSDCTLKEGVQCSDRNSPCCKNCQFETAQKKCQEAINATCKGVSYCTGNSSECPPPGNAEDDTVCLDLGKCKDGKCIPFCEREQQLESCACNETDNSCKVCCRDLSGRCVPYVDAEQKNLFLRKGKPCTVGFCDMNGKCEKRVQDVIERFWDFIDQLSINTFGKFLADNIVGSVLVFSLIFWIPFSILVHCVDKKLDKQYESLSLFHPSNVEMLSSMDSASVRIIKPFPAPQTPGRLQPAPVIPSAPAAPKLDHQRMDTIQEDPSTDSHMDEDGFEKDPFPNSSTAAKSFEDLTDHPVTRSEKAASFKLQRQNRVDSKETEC

**Q.** For `N#Cc1cc2c(=O)n3ccccc3nc2n(Cc2ccco2)/c1=N/C(=O)c1ccco1`, which IC50 [1] is on record?
**A.** The IC50 was 1.67 µM (active).

**Q.** And the IC50 [2]?
**A.** The IC50 was 56.1 µM (inactive).

**Q.** And the IC50 [3]?
**A.** The IC50 was > 66 µM (inactive).

**Q.** What about the IC50 [4] of the same compound?
**A.** The IC50 was > 66 µM (inactive).

**Q.** With `COCc1nnc(SCC(=O)NCc2ccccc2)n1-c1ccccc1` as the compound, how does the EC50 (Ion channel NompC) read?
**A.** Its EC50 is > 29.9 µM (inactive).

**Q.** And the EC50 (Mucolipin-3)?
**A.** The EC50 was > 29.9 µM (not active).

**Q.** For `O=C(Nc1cccc(S(=O)(=O)N2CCOCC2)c1)c1ccc(N2CCCC2=O)cc1`, which IC50 (Cannabinoid receptor 1 [5]) is on record?
**A.** Its IC50 is > 32 µM (inactive).

**Q.** What about the EC50 [6] of the same compound?
**A.** Its EC50 is 1.37 µM (active).

**Q.** And the IC50 (Cannabinoid receptor 2 [7])?
**A.** Its IC50 is > 32 µM (inactive).

**Q.** And the EC50 (Cannabinoid receptor 2 [8])?
**A.** Its EC50 is > 32 µM (inactive).

**Q.** What about the EC50 (Cannabinoid receptor 1 [9]) of the same compound?
**A.** The EC50 was > 32 µM (inactive).

**Q.** What about the IC50 [10] of the same compound?
**A.** The IC50 was > 32 µM (inactive).

**Q.** What about the EC50 [11] of the same compound?
**A.** The EC50 was > 32 µM (inactive).

**Q.** What does the source list for `Sc1nnc(C2CCCCC2)n1/N=C/C=C/c1ccccc1`?
**A.** Absolute IC50 (CHOP) [12]: 10 µM; IC50 [13]: 13.7 µM (inactive); IC50 [14]: > 69.5 µM (inactive)
